In patent US20100137449A1, “SUBSTITUTED 1,3-CYCLOPENTADIONE MULTI-TARGET PROTEIN KINASE MODULATORS OF CANCER, ANGIOGENESIS AND THE INFLAMMATORY PATHWAYS ASSOCIATED THEREWITH” (METAPROTEOMICS, LLC, priority 2007, published 2010):

Columns and labels:
Experiment in all cases: KinaseProfiler Assay
[1] = biological target: Ret(h) (Homo sapiens, UniProt P07949)
[2] = biological target: PI 3-Kinaseδ(h)
[3] = biological target: PKA(h) (Homo sapiens, UniProt P17612)
[4] = biological target: T1, EphA8(h) (Homo sapiens, UniProt P29322)
T1 sequence (P29322 28-1005): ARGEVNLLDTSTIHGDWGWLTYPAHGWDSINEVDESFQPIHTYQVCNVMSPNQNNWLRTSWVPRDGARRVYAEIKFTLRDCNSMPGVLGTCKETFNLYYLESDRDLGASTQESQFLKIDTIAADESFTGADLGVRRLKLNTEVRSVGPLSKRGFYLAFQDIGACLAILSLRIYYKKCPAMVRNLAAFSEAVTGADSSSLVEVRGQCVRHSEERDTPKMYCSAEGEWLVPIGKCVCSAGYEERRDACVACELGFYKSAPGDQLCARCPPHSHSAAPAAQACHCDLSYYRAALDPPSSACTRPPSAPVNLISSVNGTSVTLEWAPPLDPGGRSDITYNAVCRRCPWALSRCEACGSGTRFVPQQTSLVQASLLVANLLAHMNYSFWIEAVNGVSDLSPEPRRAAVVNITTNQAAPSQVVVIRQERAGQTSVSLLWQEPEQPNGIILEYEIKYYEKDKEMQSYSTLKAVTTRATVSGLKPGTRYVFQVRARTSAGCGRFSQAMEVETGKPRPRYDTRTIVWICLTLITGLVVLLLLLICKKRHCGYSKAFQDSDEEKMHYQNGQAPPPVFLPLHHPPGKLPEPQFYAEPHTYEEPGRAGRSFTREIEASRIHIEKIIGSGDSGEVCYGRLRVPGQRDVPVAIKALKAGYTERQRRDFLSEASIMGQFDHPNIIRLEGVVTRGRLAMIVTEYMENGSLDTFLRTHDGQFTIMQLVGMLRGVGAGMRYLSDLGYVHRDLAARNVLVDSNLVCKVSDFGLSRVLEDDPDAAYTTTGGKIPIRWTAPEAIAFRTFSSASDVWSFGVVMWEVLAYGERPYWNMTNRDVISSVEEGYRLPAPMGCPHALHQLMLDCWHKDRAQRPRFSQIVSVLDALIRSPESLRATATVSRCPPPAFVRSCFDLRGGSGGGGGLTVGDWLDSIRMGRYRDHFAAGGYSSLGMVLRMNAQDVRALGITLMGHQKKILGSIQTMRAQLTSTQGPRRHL

[5] = biological target: cKit(D816V)(h) (Homo sapiens, UniProt P10721, D816V)
[6] = biological target: TrkA(h) (Homo sapiens, UniProt P04629)
[7] = biological target: CK1γ2(h) (Homo sapiens, UniProt P78368)
[8] = biological target: T2, EphB4(h) (Homo sapiens, UniProt P54760)
T2 sequence (P54760 16-987): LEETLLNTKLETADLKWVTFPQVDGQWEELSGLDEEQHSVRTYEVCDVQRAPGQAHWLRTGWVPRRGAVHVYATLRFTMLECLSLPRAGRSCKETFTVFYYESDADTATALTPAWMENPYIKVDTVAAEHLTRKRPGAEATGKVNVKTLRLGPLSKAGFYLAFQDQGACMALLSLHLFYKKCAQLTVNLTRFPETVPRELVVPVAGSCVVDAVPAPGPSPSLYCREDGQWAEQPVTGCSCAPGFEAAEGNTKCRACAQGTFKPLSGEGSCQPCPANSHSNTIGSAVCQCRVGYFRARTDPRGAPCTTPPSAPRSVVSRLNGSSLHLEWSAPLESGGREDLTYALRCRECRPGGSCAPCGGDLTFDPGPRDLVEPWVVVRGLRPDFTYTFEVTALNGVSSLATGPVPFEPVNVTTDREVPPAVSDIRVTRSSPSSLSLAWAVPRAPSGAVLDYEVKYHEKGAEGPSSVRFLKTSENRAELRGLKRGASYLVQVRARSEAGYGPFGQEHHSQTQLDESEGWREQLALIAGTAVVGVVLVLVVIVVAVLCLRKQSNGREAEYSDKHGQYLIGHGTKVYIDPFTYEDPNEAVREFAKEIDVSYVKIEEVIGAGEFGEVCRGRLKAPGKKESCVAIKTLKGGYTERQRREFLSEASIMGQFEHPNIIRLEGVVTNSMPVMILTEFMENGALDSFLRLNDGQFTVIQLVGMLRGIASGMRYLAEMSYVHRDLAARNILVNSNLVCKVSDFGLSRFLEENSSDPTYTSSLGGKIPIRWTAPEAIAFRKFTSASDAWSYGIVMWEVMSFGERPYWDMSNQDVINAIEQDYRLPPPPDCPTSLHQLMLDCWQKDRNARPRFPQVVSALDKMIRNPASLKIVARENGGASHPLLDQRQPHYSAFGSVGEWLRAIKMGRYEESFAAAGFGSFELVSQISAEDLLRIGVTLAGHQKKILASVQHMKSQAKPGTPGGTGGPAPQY

cKit(D816V)(h), sequence (P10721 26-976 D816V): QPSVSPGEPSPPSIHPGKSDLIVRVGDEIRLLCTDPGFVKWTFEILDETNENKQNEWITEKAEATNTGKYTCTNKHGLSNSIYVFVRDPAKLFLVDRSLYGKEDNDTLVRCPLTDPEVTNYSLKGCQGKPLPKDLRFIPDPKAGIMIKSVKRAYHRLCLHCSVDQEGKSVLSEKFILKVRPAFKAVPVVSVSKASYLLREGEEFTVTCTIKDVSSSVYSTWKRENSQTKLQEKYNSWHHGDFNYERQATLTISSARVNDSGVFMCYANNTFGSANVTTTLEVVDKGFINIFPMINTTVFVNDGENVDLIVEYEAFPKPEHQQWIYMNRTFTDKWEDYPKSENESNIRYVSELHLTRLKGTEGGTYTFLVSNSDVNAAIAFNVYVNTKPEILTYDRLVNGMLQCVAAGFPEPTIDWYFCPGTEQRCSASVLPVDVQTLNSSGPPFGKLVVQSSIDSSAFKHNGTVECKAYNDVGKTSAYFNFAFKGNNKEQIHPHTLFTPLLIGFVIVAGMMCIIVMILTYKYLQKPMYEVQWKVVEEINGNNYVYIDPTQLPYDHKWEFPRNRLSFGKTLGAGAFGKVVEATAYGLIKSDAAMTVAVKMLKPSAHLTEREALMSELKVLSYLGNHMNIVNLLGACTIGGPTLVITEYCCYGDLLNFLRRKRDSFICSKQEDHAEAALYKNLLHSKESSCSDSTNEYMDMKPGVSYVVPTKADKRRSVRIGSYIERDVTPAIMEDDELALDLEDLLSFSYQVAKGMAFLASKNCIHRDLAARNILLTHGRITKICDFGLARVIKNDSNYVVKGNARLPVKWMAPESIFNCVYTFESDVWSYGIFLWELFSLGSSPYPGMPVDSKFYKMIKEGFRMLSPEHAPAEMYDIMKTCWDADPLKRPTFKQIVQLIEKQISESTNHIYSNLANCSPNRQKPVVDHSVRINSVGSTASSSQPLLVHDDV
CK1γ2(h), sequence (P78368 whole entry): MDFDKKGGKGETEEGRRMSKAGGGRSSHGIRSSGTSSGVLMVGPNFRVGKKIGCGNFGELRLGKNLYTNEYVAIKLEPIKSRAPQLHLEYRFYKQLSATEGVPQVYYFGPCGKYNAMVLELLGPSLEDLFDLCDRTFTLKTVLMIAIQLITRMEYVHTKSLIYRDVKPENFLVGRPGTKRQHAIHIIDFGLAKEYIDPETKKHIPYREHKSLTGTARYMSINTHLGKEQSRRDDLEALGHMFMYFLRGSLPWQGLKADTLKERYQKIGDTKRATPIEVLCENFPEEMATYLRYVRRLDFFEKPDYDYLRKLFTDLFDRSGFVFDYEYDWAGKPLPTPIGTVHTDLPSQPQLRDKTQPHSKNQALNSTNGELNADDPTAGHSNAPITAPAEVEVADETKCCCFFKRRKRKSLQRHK
Ret(h), sequence (P07949 29-1114): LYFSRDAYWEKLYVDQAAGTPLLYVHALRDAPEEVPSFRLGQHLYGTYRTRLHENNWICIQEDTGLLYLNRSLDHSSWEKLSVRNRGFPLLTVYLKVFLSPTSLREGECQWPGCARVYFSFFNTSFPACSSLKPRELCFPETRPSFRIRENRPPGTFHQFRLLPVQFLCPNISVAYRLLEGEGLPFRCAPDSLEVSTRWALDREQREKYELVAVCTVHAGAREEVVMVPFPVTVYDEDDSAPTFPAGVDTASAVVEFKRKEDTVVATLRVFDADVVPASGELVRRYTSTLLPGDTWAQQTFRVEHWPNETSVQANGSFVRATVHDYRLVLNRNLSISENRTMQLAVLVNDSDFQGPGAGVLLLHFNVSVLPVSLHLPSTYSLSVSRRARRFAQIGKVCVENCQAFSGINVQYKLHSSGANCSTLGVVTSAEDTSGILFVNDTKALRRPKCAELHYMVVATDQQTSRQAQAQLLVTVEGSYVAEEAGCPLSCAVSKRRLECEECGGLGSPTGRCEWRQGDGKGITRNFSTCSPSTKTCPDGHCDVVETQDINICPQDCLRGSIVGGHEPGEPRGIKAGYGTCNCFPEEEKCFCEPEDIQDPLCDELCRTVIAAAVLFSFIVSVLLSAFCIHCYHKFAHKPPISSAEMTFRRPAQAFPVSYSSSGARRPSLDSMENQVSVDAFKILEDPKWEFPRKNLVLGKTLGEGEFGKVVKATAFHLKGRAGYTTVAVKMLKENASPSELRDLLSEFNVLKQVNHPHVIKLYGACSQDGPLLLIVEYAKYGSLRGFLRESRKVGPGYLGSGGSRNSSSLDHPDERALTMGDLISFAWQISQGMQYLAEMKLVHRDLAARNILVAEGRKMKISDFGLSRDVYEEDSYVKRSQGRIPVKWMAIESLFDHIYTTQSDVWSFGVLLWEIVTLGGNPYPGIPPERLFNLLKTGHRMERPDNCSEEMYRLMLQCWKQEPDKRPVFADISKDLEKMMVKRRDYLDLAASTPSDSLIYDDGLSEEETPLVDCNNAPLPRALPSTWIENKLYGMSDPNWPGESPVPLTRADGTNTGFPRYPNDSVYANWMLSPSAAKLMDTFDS
TrkA(h), sequence (P04629 33-796): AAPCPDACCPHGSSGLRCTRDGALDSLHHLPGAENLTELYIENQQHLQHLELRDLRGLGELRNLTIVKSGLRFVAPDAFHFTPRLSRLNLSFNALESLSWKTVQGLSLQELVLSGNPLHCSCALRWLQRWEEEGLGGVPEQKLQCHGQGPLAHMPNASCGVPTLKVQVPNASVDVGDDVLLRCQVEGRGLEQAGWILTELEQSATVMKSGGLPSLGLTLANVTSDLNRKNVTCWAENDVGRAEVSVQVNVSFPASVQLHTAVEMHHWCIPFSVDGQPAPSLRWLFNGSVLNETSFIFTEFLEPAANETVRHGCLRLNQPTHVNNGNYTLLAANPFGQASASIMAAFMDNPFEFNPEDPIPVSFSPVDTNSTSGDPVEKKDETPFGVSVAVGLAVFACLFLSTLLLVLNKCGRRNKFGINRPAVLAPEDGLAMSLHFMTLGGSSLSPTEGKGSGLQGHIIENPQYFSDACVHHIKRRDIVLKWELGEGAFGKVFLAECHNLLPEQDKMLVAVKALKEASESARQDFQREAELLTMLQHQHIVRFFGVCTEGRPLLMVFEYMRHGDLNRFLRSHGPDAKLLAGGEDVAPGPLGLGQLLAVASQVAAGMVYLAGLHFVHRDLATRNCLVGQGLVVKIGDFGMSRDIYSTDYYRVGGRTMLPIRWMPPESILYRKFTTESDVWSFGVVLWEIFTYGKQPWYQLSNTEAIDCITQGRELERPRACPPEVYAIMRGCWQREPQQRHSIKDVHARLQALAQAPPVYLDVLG

CC(C)CCC(=O)[C@]1(O)C(O)=C(C(=O)C(C)C)C(=O)[C@H]1CCC(C)C [TH2, tetrahydroiso-cohumulone] was tested, and the kinase inhibition ([1]; 1 μg/ml) was 112% of control, the kinase inhibition ([1]; 5 μg/ml) was 115% of control and the kinase inhibition ([1]; 25 μg/ml) was 101% of control. For the same molecule, the kinase inhibition ([1]; 50 μg/ml) was 100% of control, the kinase inhibition ([1]; 100 μg/ml) was 68% of control and the kinase inhibition ([2]; 1 μg/ml) was 95% of control. For the same molecule, the kinase inhibition ([2]; 5 μg/ml) was 100% of control, the kinase inhibition ([2]; 25 μg/ml) was 72% of control and the kinase inhibition ([2]; 50 μg/ml) was 42% of control. The kinase inhibition ([2]; 100 μg/ml) was 19% of control, the kinase inhibition ([3]; 1 μg/ml) was 131% of control and the kinase inhibition ([3]; 5 μg/ml) was 124% of control. The kinase inhibition ([3]; 25 μg/ml) was 93% of control, the kinase inhibition ([3]; 50 μg/ml) was 94% of control and the kinase inhibition ([3]; 100 μg/ml) was 86% of control. The kinase inhibition ([4]; 1 μg/ml) was 118% of control, the kinase inhibition ([4]; 5 μg/ml) was 99% of control and the kinase inhibition ([4]; 25 μg/ml) was 112% of control. The kinase inhibition ([4]; 50 μg/ml) was 101% of control, the kinase inhibition ([4]; 100 μg/ml) was 100% of control and the kinase inhibition ([5]; 1 μg/ml) was 109% of control. The kinase inhibition ([5]; 5 μg/ml) was 105% of control, the kinase inhibition ([5]; 25 μg/ml) was 98% of control and the kinase inhibition ([5]; 50 μg/ml) was 82% of control. The kinase inhibition ([5]; 100 μg/ml) was 87% of control, the kinase inhibition ([6]; 1 μg/ml) was 110% of control and the kinase inhibition ([6]; 5 μg/ml) was 111% of control. For the same molecule, the kinase inhibition ([6]; 25 μg/ml) was 99% of control, the kinase inhibition ([6]; 50 μg/ml) was 31% of control and the kinase inhibition ([6]; 100 μg/ml) was 25% of control. The kinase inhibition ([7]; 1 μg/ml) was 103% of control, the kinase inhibition ([7]; 5 μg/ml) was 96% of control and the kinase inhibition ([7]; 25 μg/ml) was 79% of control. For the same molecule, the kinase inhibition ([7]; 50 μg/ml) was 54% of control, the kinase inhibition ([7]; 100 μg/ml) was 49% of control and the kinase inhibition ([8]; 1 μg/ml) was 106% of control. For the same molecule, the kinase inhibition ([8]; 5 μg/ml) was 112% of control, the kinase inhibition ([8]; 25 μg/ml) was 116% of control and the kinase inhibition ([8]; 50 μg/ml) was 109% of control. The kinase inhibition ([8]; 100 μg/ml) was 98% of control.
